Reference: PMC12684391, “Mechanistic insights into the monotherapy and combination potential of FEN1 inhibition in cancer therapy” (Nucleic Acids Research, 2025)

Legend:
Format in all cases: cell-based
[1] = tested on: HCT-116, NCI-H460, SUM149PT, MDA-MB-436 cells; assay: Combination viability assay (CTG, Bliss synergy); conditions: HRP (HCT-116, NCI-H460) and HRD (SUM149PT, MDA-MB-436) cells, 7 days
Method: (§1) For combination analysis, cells were seeded in 70 μl of media in 384-well plates pre-dosed with compounds (5-point dose–response matrix) with a D300e digital dispenser (Tecan). Cell proliferation was determined after 7 days using CTG. Analysis was performed with Genedata Screener (Compound Synergy Extension) to determine Synergy scores (Bliss model), using a formulation whereby the Blissexcess is a continuous value and values higher than 2 are usually considered synergistic, and values between 0 and 2 are usually considered additive.

DLD-1 WT cells = assay: Combination viability assay (CTG, Bliss synergy); conditions: 7 days
Method: as §1

DLD-1 BRCA2KO cells = assay: Combination viability assay (CTG, Bliss synergy); conditions: 7 days
Method: For combination analysis, cells were seeded in 70 μl of media in 384-well plates pre-dosed with compounds (5-point dose–response matrix) with a D300e digital dispenser (Tecan). Cell proliferation was determined after 7 days using CTG.

RD-ES cells = assay: Combination viability assay (CTG, Bliss synergy); conditions: 7 days
[2] = tested on: SUM149PT 53BP1KO and SHLD2KO cells; assay: Combination viability assay (CTG, Bliss synergy); conditions: SUM149PT with 53BP1 or SHLD2 genetically ablated, 7 days
Method: as §1

[3] = tested on: SUM149PT 53BP1KO and SHLD2KO cells; assay: Cell viability assay (CTG), 7 days, PARP inhibitor resistant models; conditions: less sensitive than parental
Method: Cells were seeded in 150 μl of media in 96-well plates or in 70 μl of media in 384-well plates pre-dosed with compounds (8–10 points dose response) with a D300e digital dispenser (Tecan) and incubated for 24 h at 37°C and 5% CO2. Cell proliferation at the end of the assay (7 days) was measured using CTG (Promega, G9243). CTG luminescence was normalized to vehicle treated control for each cell line, and data were fitted with a nonlinear regression curve (four parameters) to generate compound sensitivity curves and determine IC50 or EC50 (half maximal inhibitory/effective concentration) values as indicated.

COc1ncnc(C2CC2)c1-c1ncc2cnn(Cc3ccc(-c4nc(C(F)(F)F)cn4C(C)C)cc3)c2n1 [KSQ-4279]
Combination benefit with MSC778 [1]: particularly strong

Cc1nc(C)c(Cn2c(=O)n(-c3ncns3)c3cc(S(=O)(=O)NC4(C)CC4)ccc32)s1 [PDD00017238]
Combination benefit with MSC778 [1]: particularly strong | Combination effect with MSC778 (DLD-1 WT cells): Synergistic

Cn1cncc1-c1c(F)cncc1NC(=O)c1c(N)nn2cc(F)cnc12 [Tuvusertib]
Combination effect with MSC778 (DLD-1 BRCA2KO cells): at best weakly additive

NC(=O)c1cccc2cn(-c3ccc([C@@H]4CCCNC4)cc3)nc12 [niraparib]
Combination effect with MSC778 (RD-ES cells): combination benefit

O=C(c1cc(Cc2n[nH]c(=O)c3ccccc23)ccc1F)N1CCN(C(=O)C2CC2)CC1 [olaparib]
Combination effect with MSC778 (RD-ES cells): combination benefit | Combination effect with MSC778 [2]: synergized

Cn1ncnc1[C@H]1c2n[nH]c(=O)c3cc(F)cc(c23)N[C@@H]1c1ccc(F)cc1 [talazoparib, reference compound]
Change in sensitivity of SUM149PT 53BP1KO and SHLD2KO cells versus parental cells [3]: ~20 fold | Combination effect with MSC778 [2]: synergized

C[C@]1(c2nc3c(C(N)=O)cccc3[nH]2)CCCN1 [veliparib]
Combination effect with MSC778 (RD-ES cells): combination benefit

PDD00017273
Combination effect with MSC778 (RD-ES cells): limited to additivity | Combination effect with MSC778 (DLD-1 WT cells): Synergistic
